Non-standard residues stand in square brackets, D forms with d. Residues, ends and D or L forms follow the SMILES beside them. ξ: configuration not given here. *: point of attachment. ξF = NC(Cc1ccccc1)C(=O)O; Boc = CC(C)(C)OC(=O)*
| Compound | melting point [°C] |
| --- | --- |
| CC1(C2CCC3C4CCC5CC(O)CCC5(C)C4C(OC(=O)CCl)CC32C)OCCO1 (stereo not given) | 194 to 202 |
| O=c1[nH]c(=O)n(C2CC(O)C(COCc3ccccc3)O2)cc1F (stereo not given) | 129 to 130 |
| Fc1cccc(F)c1COCc1nc2ccccc2n1Cc1c(F)cccc1F | 109 |
| O=S1(=O)N=CN(C2CC2)c2c(Cl)cccc21 | 159 to 160 |
| Cn1c(=O)oc2cc(CCCN3CCOCC3)cnc21 | < 80 |
| O=C(NC(=O)N1CCC(Oc2ccc(Cl)cc2)CC1)c1ccc(O)cc1 | 189 |
| Nc1cc(C(=O)O)cc(NCc2ccccc2)c1-c1ccccc1 | 179 to 181 |
| O=C(c1ccccc1)N1CCN(CCCN2C(=O)c3ccccc3C2=O)CC1 | 100 to 104 |
| CC(C)n1cc2c3c(cccc31)C1CC(C(=O)NC3CCCC3O)CN(C)C1C2 (stereo not given) | 232 to 234 |
| CNC(C)Cc1ccc(CCCC(=O)O)cc1 (stereo not given) | 170 to 172 |
| COC(=O)CC(C(=O)OC)N1CCC(Nc2ncc3ncnc(Nc4cccc(Br)c4)c3n2)CC1 (stereo not given) | 193 |
| CCc1nc(N)nc(N)c1-c1ccc(NC)c([N+](=O)[O-])c1 | 262 to 265 |
| OC1CSC(Oc2cnccc2-c2ccc(F)cc2)C(O)C1O (stereo not given) | 219 |
| CN(CC(O)C(N)C(=O)c1cccc(C(F)(F)F)c1)c1ccc(Cl)cc1 (stereo not given) | 128 to 132 |
| CC(=O)OCC(=O)C1CC(OS(=O)(=O)c2c(C)cc(C)cc2C)C2C3CCC4CC(OC(C)=O)CCC4(C)C3CC(OC(C)=O)C12C (stereo not given) | 156 to 157 |
| Cc1ccc2oc(=O)c(-c3ccccc3)c(OCCN3CCOCC3)c2c1 | 96 |
| CSc1ccc(C2=C(c3cccc(F)c3)C(=O)C(C)(C)O2)cc1 | 106 |
| CCOc1nn(-c2ccc(C(F)(F)F)cn2)cc1CCOc1cc(CC(=O)O)n(C)n1 | 156 to 158 |
| Cc1c2n(c3ccccc13)C(=O)C(C(O)c1cccnc1)CC2 (stereo not given) | 83 to 86 |
| O=C(O)C1=Cc2cc(C#Cc3ccccc3)ccc2NC1C(F)(F)F (stereo not given) | 218 to 219 |
| CCOCCCN1C=Cc2cc(S(N)(=O)=O)sc2S1(=O)=O | 131 to 132 |
| N#CCC1CCN1C(c1ccccc1)c1ccccc1 (stereo not given) | 82 to 85 |
| COc1cc(OC(C)C)ccc1-c1nc(-c2ccc(OC(C)C)cc2O)nc(-c2ccc(OC(C)C)cc2O)n1 | 185 to 188 |

| Compound | melting point [°C] |
| --- | --- |
| Cc1cccc(C)c1N1CCc2c(C)nc3ccccc3c21 | 149 to 152 |
| O=C(Nc1ccc(C(=O)N2CCO[C@H]3CCCC[C@@H]32)cc1)c1ccc(Cl)cc1Cl (relative stereo) | 227 to 230 |
| CCOC(=O)c1c(Oc2ccc(Cl)cc2N)c2ccccc2n1C | 118 to 120 |
| O=c1oc2ccccc2c(O)c1CCCCC1CCCCC1 | 160 to 161 |
| N#Cc1ccc(CCC(O)c2ccc(C#N)cc2)cc1 (stereo not given) | 110 to 112 |
| O=[N+]([O-])c1ccccc1Cc1ncc[nH]1 | 155 to 157 |
| CCCCn1c(=S)c2c(ncn2CC(C)=O)n(CC)c1=O | 173 to 174 |
| C[C@]12C[C@H](c3ccc(O)cc3)C3=C4CCC(=O)C=C4CC[C@H]3[C@@H]1CCC2=O | 220 |
| COC1=Nc2c(C)ccnc2N(C2CC2)c2ncccc21 | 191 to 192 |
| CCS(=O)(=O)CCNc1c(S(C)=O)c(C#N)nn1-c1c(Cl)cc(C(F)(F)F)cc1Cl (stereo not given) | 131 to 132 |
| CN1CCN(c2nc(N)c3cc(Cl)ccc3n2)CC1 | 176 to 178 |
| CCc1ccccc1-c1cccc(-n2cnc(-c3nc(C)no3)c2)c1 | 150 to 156 |
| CC(=O)Nc1cc(OCCC(=O)O)ccc1Oc1ccccc1 | 138 to 140 |
| Cc1ccc(-c2[nH]nc(COCCCO)c2-c2ccc(S(N)(=O)=O)cc2)cc1 | 85 to 86 |
| NC(=O)NN=Cc1ccc(Oc2ccc(F)cc2)c(F)c1 | 233 to 234 |
| CCCOc1ccc(CO)nc1Cl | 59 to 60 |
| COC(=O)c1cnc2c3cc(NC(=O)CCC4CCCC4)ccc3ncn2c1=O | 244 to 247 |
| O=C(c1ccc([N+](=O)[O-])cc1)N1Cc2ccnn2Cc2ccccc21 | 227 to 229 |
| Cc1c(CNCC(C)C)n(C)c2ccc(NC(=O)c3ccc(OCC4CC4)cc3)cc12 | 142 to 143 |
| Cc1cc(-n2nc(C(F)(F)F)cc2-c2ccc(-c3ccco3)cc2)ccc1S(C)(=O)=O | 135 to 139 |
| COc1cc2c(cc1Cl)NC(=O)C2=NNc1ccc(S(N)(=O)=O)cc1 | > 250 |
| COC(=O)/C(=N/N(C)C)c1ccc(OCCOc2ccc3ccccc3c2)cc1 | 109 to 111 |
| Cc1cc(C)cc(NCc2ccc3nc(NC4CCN(CC(N)=O)CC4)n(Cc4nc(C)ccc4O)c3c2)c1 | 206 |

Now from value to molecule:

| melting point [°C] | Compound |
| --- | --- |
| 222 to 223 | Cc1c(C#N)cnc(N)c1C#N |
| 216 to 217 | Cc1ccc(NC(=O)c2cc(Br)c(Br)s2)cc1C |
| 144 to 145 | O=[N+]([O-])c1ccc(CP2(=O)OCCCO2)cc1 |
| 91 to 92 | CCOC(=O)c1c(C)cc(-c2ccc(OC)c(OC)c2)cc1C |
| 90 to 93 | CCc1noc(NS(=O)(=O)c2ccccc2)c1Br |
| 185 to 188 | CNc1c(N)cnn1C |
| 190 to 191 | Cn1c(=O)c(-c2ccccc2Cl)cc2cnc(N[C@H]3CC[C@H](N)CC3)nc21 |
| 181 to 183 | Cc1c(NC(=O)c2ccc(-c3ccc(Cl)cc3)cc2F)ccc2cc(CN3CCCC3)cnc12 |
| 133 | CS(=O)(=O)c1ccc(NCC(O)CO)c([N+](=O)[O-])c1 (stereo not given) |
| 62 to 64 | O=C(Nc1ccc(F)cc1)N(CCO)CCCCO |
| 133 to 136 | CCOC(=O)Cc1cc(OC)c2c(c1)C1(O)C(=O)c3ccccc3C1(O)O2 (stereo not given) |
| 178 | CC(=O)c1[nH]c2cc(Cl)cc(Cl)c2c1C |
| 142 to 143 | Nc1c(C(=O)c2cccc(Br)c2)[nH]c2cc(Cl)ccc12 |
| 88 to 91 | COc1ccc(-c2ccc(Cl)cc2)cc1OC1CCCC1 |
| 89 to 91 | CS(=O)(=O)OCC1(COc2ccc(Br)cc2)COC1 |
| 90 to 95 | CCCN(c1ncnc2[nH]cnc12)n1ccc2ccccc21 |
| 105 to 107 | CCONC(=O)n1nc(Oc2c(Cl)cc(C(F)(F)F)cc2Cl)cc1C |
| 219 to 220 | O=C1C=CC(O)(c2ccc(OCCCCl)cc2)O1 (stereo not given) |
| 158 to 160 | CNC(=O)C(Cc1ccccc1)NC(=O)CNC(=O)OC(C)(C)C (stereo not drawn) (Boc-Gly-[ξF]-NHMe) |
| 113 to 115 | COc1ccc([N+](=O)[O-])cc1NC(=O)CC(=O)C1(C)COC(C)(C)OC1 |
| 114 to 116 | C[C@@](O)(C(=O)Nc1ccc(S(=O)(=O)c2ccccc2S(C)(=O)=O)cc1Cl)C(F)(F)F |
| 226 to 229 | CNc1nnc(-c2cc3c(Oc4ccc(Cl)cc4)cncc3s2)s1 |
| 89 | CCCN(c1nc(-c2ccc(OC)cc2Cl)c(C)s1)c1cc(N)ccc1OC |
| 167 to 168 | CN1CCN(C(=O)c2cc(S(=O)(=O)NC3CCCCC3)ccc2N)CC1 |
| 171 to 173 | Cc1ccc2c(Cl)nccc2c1[N+](=O)[O-] |
| 174 | Cc1cc(O)c(S(=O)C23CC4CC(CC(C4)C2)C3)c(=O)o1 (stereo not given) |
| 133 to 137 | CNC(=O)C(Cc1ccc(OC)cc1)NC(=O)C(CC(C)C)C(S)CC(=O)OC(C)(C)C (stereo not given) |

| melting point [°C] | Compound |
| --- | --- |
| 185 | CN1CC(O)=C(C(=O)Nc2ccccn2)N(C)S1(=O)=O |
| 184 to 185 | Cc1nc(-n2cnn(CCCC(F)(F)F)c2=O)sc1C(=O)NCc1cccnc1 |
| 139 to 142 | COC(=O)C1(C(=O)O)CCc2cc(C3CCCCC3)c(Cl)cc21 (stereo not given) |
| 197 to 198 | O=C1NCC(CN2C(=O)C3(COc4cc5c(cc43)CCO5)c3ccccc32)O1 (stereo not given) |
| 295 to 296 | Cc1cc(=O)n2c3c(cc(C(O)(C(F)(F)F)C(F)(F)F)cc13)CCC2 |
| 187 | CC(C)(C)C(COC(N)=O)(NC(=O)c1ccccc1)c1c[nH]c2ccc(Br)cc12 (stereo not given) |
| 274 | COc1ccc(N=Nc2ccc(O)c(C(=O)Nc3ccc4[nH]cnc4c3)c2)cc1 |
| 137 to 139 | O=C1N(Cc2nnc(C(F)(F)F)o2)c2ccccc2C12COc1cc3c(cc12)OCCO3 (stereo not given) |
| 205 | COc1ccc(CC(NC(c2ccccc2)c2ccccc2)P(O)O)cc1OC (stereo not given) |
| 97.5 to 100 | CCCCCCC(CO)n1cnc(C(N)=O)c1 (stereo not given) |
| 115 to 117 | C#CCOc1ccc(C(=O)C=Cc2cccnc2)c(O)c1 |
| 149 to 151 | COC(=O)c1cc(C)sc1Nc1ccc(F)cc1[N+](=O)[O-] |
| 191 to 195 | COc1cc2c(cc1C(F)(F)F)N(C(=O)Nc1cc(F)cc(-c3cnccc3C)c1)CC2 |
| 219 | CCS(=O)(=O)c1ccc(-c2cc(-c3nc(N)sc3-c3cccc(C)n3)ccn2)cc1 |
| 147 to 149 | CC(=Cc1ccc(-n2cnc3c2CCCC3)cc1)[N+](=O)[O-] |
| 222 to 224 | CNc1nn(C(=O)NC(C)C(C)Cc2ccc(Cl)cc2)c(=O)n1C (stereo not given) |
| 172 to 173 | Cc1nc2c(OCc3ccccc3F)cccn2c1CC#N |
| 179 to 180 | CC(=O)Oc1ccc(-c2c3ccccc3cc3sc4ccccc4c23)cc1OC(C)=O |
| 96 to 102 | Nc1nc2c(s1)CCN(CC=Cc1ccccc1F)CC2 |
| 300 to 302 | Cc1cc(C(=N)NO)ccc1-c1ccc(-c2nc3cc(C(=N)NO)ccc3[nH]2)cc1 |
| 258 | COCc1c(C(=O)c2ccccc2)ncc2[nH]c3ccc(O)cc3c12 |
| 223 to 224 | CC(C)(C)n1nc2c(N)nc3ccccc3c2c1CCCNS(C)(=O)=O |
| 150 | CCN(CC)C(=O)[C@H]1C[C@H](C(=O)OC(C)(C)C)N(C(=O)CNC(=O)Nc2cccc(C(=O)O)c2)[C@@H]1c1ccccc1F (racemic) |
| 123 | N#CCC(O)(c1ccc(Cl)cc1)c1ccc(-c2ccc(Cl)cc2)cc1 (stereo not given) |
| 190 to 195 | CC1=CN2C(=NC(c3ccc(C)cc3)C2C(=O)C(=O)O)C=C1 (stereo not given) |
| > 220 | NS(=O)(=O)c1ccc(NN=C2C(=O)Nc3cc4c(cc32)OCO4)cc1 |
| 88.5 to 90.5 | CCOC(=O)CNC(=O)COc1ccc(CCl)cc1 |

— a melting point compilation (Tetko et al.; mined from patent text by program, amines drawn as free bases though some values may be those of a salt)
